Results as given in patent publication US20260001871A1, “TRIAZOLE DERIVATIVES AS MODULATORS OF MAS-RELATED G-PROTEIN RECEPTOR D” (ESCIENT PHARMACEUTICALS, INC., priority 2022, published 2026).

Molecular target: human MRGPRD (Homo sapiens, UniProt Q8TDS7)
Test: MRGPRD antagonist activity, IP-One HTRF assay in CHO cells stably expressing human MRGPRD (versus 100 μM β-Alanine agonist)
Assay type: cell-based
Outline: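 CHO cells stably expressing human MRGPRD, plated overnight at 37 °C, were treated with antagonist plus agonist in Tris-HCl/NaCl/LiCl buffer pH 8, incubated 1 h at 37 °C then 1 h at room temperature. IP-1 accumulation read by HTRF; IC50 and percent antagonism of maximum efficacy averaged, SEM reported.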

Chain of human MRGPRD (Q8TDS7 whole entry): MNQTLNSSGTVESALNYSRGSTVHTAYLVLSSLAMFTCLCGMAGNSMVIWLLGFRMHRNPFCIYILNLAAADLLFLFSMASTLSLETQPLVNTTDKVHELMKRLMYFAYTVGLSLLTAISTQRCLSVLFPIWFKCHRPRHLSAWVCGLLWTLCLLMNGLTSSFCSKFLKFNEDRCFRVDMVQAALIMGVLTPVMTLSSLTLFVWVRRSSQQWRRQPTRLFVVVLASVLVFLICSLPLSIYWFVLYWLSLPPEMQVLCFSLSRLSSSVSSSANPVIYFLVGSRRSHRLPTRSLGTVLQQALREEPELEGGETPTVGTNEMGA

Question: With CC(=O)c1cccc(-c2cccc(-n3nnc(C(=O)NC4(c5cccnc5)CC4)c3C3CC3)c2)c1 [Compound 18-20] as the compound, how does the IC50 read?
Answer: 0.1 to 0.5 µM

Question: O=C(Nc1ccncc1)c1nnn(-c2cccc(-c3ccccc3Cl)c2)c1C1CC1 [Compound 7-302] was tested. Which IC50 did it give?
Answer: 1 to 3 µM

Question: CCn1cc(CNC(=O)c2nnn(-c3ccc(-c4c(C)nn(CC)c4C)cc3)c2C2CC2)cn1 [Compound 9-11] was tested. Which IC50 did it give?
Answer: 0.1 to 0.5 µM

Question: Cc1cc(C#N)ccc1-c1ccc(-n2nnc(C(=O)Nc3ccncc3)c2C2CC2)cc1 [Compound 7-15] was tested. Which IC50 did it give?
Answer: < 0.1 µM

Question: Which IC50 does the source give for CC(C)n1cc(-c2cc(-n3nnc(C(=O)Nc4ccncc4)c3C3CC3)ccc2F)cn1 [Compound 7-289] here?
Answer: 1 to 3 µM

Question: How did the IC50 turn out when Cn1cc(C(C)(C)NC(=O)c2nnn(-c3ccc(-c4ccccc4)cc3)c2C2CC2)cn1 [Compound 14-85] was run?
Answer: > 3 µM

Question: Which IC50 does the source give for Cc1nn2ccccc2c1-c1ccc(-n2nnc(C(=O)Nc3ccncc3)c2C2CC2)cc1 [Compound 7-18] here?
Answer: < 0.1 µM

Question: How did the IC50 turn out when Cc1cc(NC(=O)c2nnn(-c3cccc(-c4ccn(C5CCCC5)n4)c3)c2C2CC2)ccn1 [Compound 7-236] was run?
Answer: 0.1 to 0.5 µM

Question: Which IC50 does the source give for Cc1cc(NC(=O)c2nnn(-c3ccc(-c4ccc(C#N)nc4)cc3)c2C2CC2)ccn1 [Compound 7-38] here?
Answer: 0.1 to 0.5 µM

Question: With Cc1nn(-c2ccccc2)c(C)c1-c1ccc(-n2nnc(C(=O)NCc3ccc(C(C)C)nc3)c2C2CC2)cc1 [Compound 9-15] as the compound, how does the IC50 read?
Answer: 0.1 to 0.5 µM

Question: Which IC50 does the source give for CCn1cc(CNC(=O)c2nnn(-c3ccc(-c4ccc(C(N)=O)cc4)cc3)c2C2CC2)cn1 [Compound 17-8] here?
Answer: 1 to 3 µM

Question: Which IC50 does the source give for Cc1nn(-c2ccccc2)c(C)c1-c1ccc(-n2nnc(C(=O)NC3(c4cccnc4)CC3)c2C2CC2)cc1 [Compound 18-11] here?
Answer: < 0.1 µM

Question: With N#Cc1ccccc1-c1cccc(-n2nnc(C(=O)Nc3ccncc3)c2C2CC2)c1 [Compound 7-334] as the compound, how does the IC50 read?
Answer: > 3 µM

Question: With CC(=O)c1ccc(-c2ccc(-n3nnc(C(=O)Nc4ccncc4)c3C3CC3)cc2)c(F)c1 [Compound 7-75] as the compound, how does the IC50 read?
Answer: 0.1 to 0.5 µM

Question: Cc1nnc(-c2ccc(-n3nnc(C(=O)Nc4ccncc4)c3C3CC3)cc2)o1 [Compound 7-1] was tested. Which IC50 did it give?
Answer: > 3 µM

Question: Which IC50 does the source give for Cc1n[nH]c2cccc(NC(=O)c3nnn(-c4ccc(-c5ccccc5)cc4)c3C3CC3)c12 [Compound 14-61] here?
Answer: 1 to 3 µM

Question: For Cc1ccc(CNC(=O)c2nnn(-c3ccc(-c4c(C)nn(C)c4C)cc3F)c2C2CC2)cn1 [Compound 21-1, 5-cyclopropyl-1-(2-fluoro-4-(1,3,5-trimethyl-1H-pyrazol-4-yl)phenyl)-N-((6-methylpyridin-3-yl)methyl)-1H-1,2,3-triazole-4-carboxamide], which IC50 is on record?
Answer: < 0.1 µM

Question: For Cc1cc(NC(=O)c2nnn(C3CC=C(c4c(C)nn(-c5ccccc5)c4C)CC3)c2C2CC2)ccn1 (stereo not drawn) [Compound 12-3], which IC50 is on record?
Answer: 0.5 to 1 µM

Question: Which IC50 does the source give for CCn1cc(CNC(=O)c2nnn(-c3ccc(-c4ccccc4)cc3)c2C(C)C)cn1 [Compound 17-13] here?
Answer: 0.1 to 0.5 µM

Question: For Cc1cc(NC(=O)c2nnn(-c3ccc(-c4ccc(C#N)cc4)cc3F)c2C2CC2)ccn1 [Compound 22-1, 1-(4′-cyano-3-fluoro-[1,1′-biphenyl]-4-yl)-5-cyclopropyl-N-(2-methylpyridin-4-yl)-1H-1,2,3-triazole-4-carboxamide], which IC50 is on record?
Answer: 0.1 to 0.5 µM

Question: Which IC50 does the source give for O=C(Nc1ccncc1)c1nnn(-c2cc3ccccc3s2)c1C1CC1 [Compound 4-8] here?
Answer: 1 to 3 µM

Question: Which IC50 does the source give for CCCn1cc(-c2cccc(-n3nnc(C(=O)Nc4ccncc4)c3C3CC3)c2)cn1 [Compound 7-306] here?
Answer: 1 to 3 µM

Question: For CCn1nc(C)c(-c2ccc(-n3nnc(C(=O)NCc4ccc(C(C)C)nc4)c3C3CC3)cc2)c1C [Compound 9-21], which IC50 is on record?
Answer: 0.1 to 0.5 µM

Question: Which IC50 does the source give for Cc1cc(NC(=O)c2nnn(-c3cccc(-c4ccn(-c5ccccc5)n4)c3)c2C2CC2)ccn1 [Compound 7-282] here?
Answer: 0.5 to 1 µM

Question: Cc1nn(C)c(C)c1-c1ccc(-n2nnc(C(=O)NCc3nc4ccccc4n3C)c2C2CC2)cc1 [Compound 7-209] was tested. Which IC50 did it give?
Answer: 1 to 3 µM

Question: Which IC50 does the source give for Cc1nocc1-c1ccc(-n2nnc(C(=O)Nc3ccncc3)c2C2CC2)cc1 [Compound 7-57] here?
Answer: 0.1 to 0.5 µM

Question: With Cc1ccc(CNC(=O)c2nnn(-c3ccc(-c4c(C)nn(-c5ccccc5)c4C)cc3)c2C2CC2)cn1 [Compound 15-22] as the compound, how does the IC50 read?
Answer: < 0.1 µM

Question: How did the IC50 turn out when CS(=O)(=O)Nc1ccc(NC(=O)c2nnn(-c3ccc(-c4ccccc4)cc3)c2C2CC2)cc1 [Compound 14-19] was run?
Answer: 0.5 to 1 µM

Question: Which IC50 does the source give for COc1ccccc1-c1ccc(-n2nnc(C(=O)Nc3ccncc3)c2C2CC2)cc1 [Compound 7-112] here?
Answer: 0.1 to 0.5 µM

Question: Which IC50 does the source give for COc1ccc(-c2cccc(-n3nnc(C(=O)Nc4ccncc4)c3C3CC3)c2)c(OC)c1 [Compound 7-286] here?
Answer: 1 to 3 µM

Question: For Cc1cc(NC(=O)c2nnn(-c3ccc(-c4c(C)nn(C)c4F)cc3F)c2C2CC2)ccn1 [Compound 7-224], which IC50 is on record?
Answer: < 0.1 µM

Question: How did the IC50 turn out when Cc1nn(C)c(C)c1-c1ccc(-n2nnc(C(=O)NC(C)c3cnn(C)c3)c2C2CC2)cc1 (stereo not drawn) [Compound 15-4, 5-cyclopropyl-N-(1-(1-methyl-1H-pyrazol-4-yl)ethyl)-1-(4-(1,3,5-trimethyl-1H-pyrazol-4-yl)phenyl)-1H-1,2,3-triazole-4-carboxamide] was run?
Answer: 0.5 to 1 µM

Question: For COc1cc(NC(=O)c2nnn(-c3ccc(-c4ccccc4)cc3)c2C2CC2)cc(C)n1 [Compound 14-23], which IC50 is on record?
Answer: 0.5 to 1 µM

Question: Which IC50 does the source give for N#CCc1cccc(-c2cccc(-n3nnc(C(=O)Nc4ccncc4)c3C3CC3)c2)c1 [Compound 7-269] here?
Answer: 0.5 to 1 µM

Question: O=C(Nc1ccncc1)c1nnn(-c2ccc(-c3cccs3)cc2)c1C1CC1 [Compound 7-152] was tested. Which IC50 did it give?
Answer: 0.5 to 1 µM

Question: How did the IC50 turn out when Cc1cc(NC(=O)c2nnn(-c3ccc(-c4ccc(C#N)cc4)cn3)c2C2CC2)ccn1 [Compound 11-2] was run?
Answer: 0.1 to 0.5 µM

Question: With Cc1cscc1-c1ccc(-n2nnc(C(=O)Nc3ccncc3)c2C2CC2)cc1 [Compound 7-181] as the compound, how does the IC50 read?
Answer: 1 to 3 µM

Question: For COc1cc(C)ccc1-n1nnc(C(=O)Nc2ccncc2)c1C1CC1 [Compound 5-5], which IC50 is on record?
Answer: 0.5 to 1 µM

Question: O=C(Nc1ccncc1)c1nnn(-c2ccc(-c3cccc(F)c3)cc2)c1C1CC1 [Compound 7-190] was tested. Which IC50 did it give?
Answer: 1 to 3 µM

Question: COc1ccc(-c2cccc(-n3nnc(C(=O)Nc4ccncc4)c3C3CC3)c2)cc1 [Compound 7-268] was tested. Which IC50 did it give?
Answer: 0.5 to 1 µM

Question: Which IC50 does the source give for Cc1cc(NC(=O)c2nnn(-c3ccc(-c4ccccc4)cn3)c2C2CC2)ccn1 [Compound 7-279] here?
Answer: 0.5 to 1 µM

Question: How did the IC50 turn out when O=C(Nc1ccncc1)c1nnn(-c2ccc(-c3ccnn3CC3CC3)cc2)c1C1CC1 [Compound 7-168] was run?
Answer: 1 to 3 µM

Question: With CCc1ccc(C2(NC(=O)c3nnn(-c4ccc(-c5c(C)nn(C)c5C)cc4)c3C3CC3)CC2)cn1 [Compound 9-33] as the compound, how does the IC50 read?
Answer: 1 to 3 µM

Question: How did the IC50 turn out when O=C(Nc1ccncc1)c1nnn(-c2cccc(-c3ccc(Cl)cc3)c2)c1C1CC1 [Compound 7-307] was run?
Answer: 1 to 3 µM

Question: How did the IC50 turn out when CC(=O)c1ccc(-c2cccc(-n3nnc(C(=O)Nc4ccncc4)c3C3CC3)c2)cc1C [Compound 7-249] was run?
Answer: 0.5 to 1 µM

Question: How did the IC50 turn out when Cc1nn2ccccc2c1-c1ccc(-n2nnc(C(=O)NC3(c4cccnc4)CC3)c2C2CC2)cc1 [Compound 19-3] was run?
Answer: 0.5 to 1 µM

Question: For Cc1ccc(-n2nnc(C(=O)Nc3ccncc3)c2C2CCCC2)cc1 [Compound 3-6], which IC50 is on record?
Answer: 1 to 3 µM

Question: How did the IC50 turn out when Cc1cc(-c2ccc(-n3nnc(C(=O)Nc4ccncc4)c3C3CC3)cc2)n(C)n1 [Compound 7-132] was run?
Answer: 0.5 to 1 µM

Question: O=C(Nc1ccncc1)c1nnn(-c2ccc(-c3cnn4c3CCC4)cc2)c1C1CC1 [Compound 7-25] was tested. Which IC50 did it give?
Answer: 0.1 to 0.5 µM

Question: With Cc1ccc(CNC(=O)c2nnn(-c3ccc(-c4cnn5c4CCC5)cc3)c2C2CC2)cn1 [Compound 8-4] as the compound, how does the IC50 read?
Answer: 1 to 3 µM

Question: For Cc1cccc(-c2cccc(-n3nnc(C(=O)Nc4ccncc4)c3C3CC3)c2)c1 [Compound 7-321], which IC50 is on record?
Answer: 1 to 3 µM
